Assay results taken from PMC12892976, “Alkylation-based optimization of antifungal FPPS inhibitors yields a potent, broad-spectrum lipophilic zoledronate derivative” (mBio, 2025).
Values after ≈ are worked out from the molar mass of the structure shown.

How the values were obtained:
Acinetobacter baumanii = experiment: antibacterial MIC; type: cell-based; conditions: Acinetobacter baumannii
Text: (§1) […]; Table S3). […]. […] […].

Bacillus subtilis = experiment: antibacterial MIC; type: cell-based
Text: as §1

Enterobacter aerogenes = experiment: antibacterial MIC; type: cell-based; conditions: Klebsiella aerogenes
Text: as §1

Enterococcus faecalis = experiment: antibacterial MIC; type: cell-based
Text: as §1

Escherichia coli = experiment: antibacterial MIC; type: cell-based
Text: as §1

Proteus vulgaris = experiment: antibacterial MIC; type: cell-based
Text: as §1

Pseudomonas aeruginosa = experiment: antibacterial MIC; type: cell-based
Text: as §1

Salmonella Typhimurium = experiment: antibacterial MIC; type: cell-based; conditions: Salmonella enterica
Text: as §1

Staphylococcus aureus = experiment: antibacterial MIC; type: cell-based
Text: as §1

Streptococcus pneumoniae = experiment: antibacterial MIC; type: cell-based
Text: as §1

Streptococcus pyogenes = experiment: antibacterial MIC; type: cell-based
Text: as §1

C. albicans [1] = experiment: ergosterol quantitation; type: cell-based, Candida albicans; conditions: 1× MIC vs no-drug control
Description: (§2) Treated cultures were incubated at 30°C with shaking for 18 h for C. albicans and A. fumigatus and for 32 h for C. neoformans. Cell membrane ergosterol was then extracted and quantified as described previously ([48]).

C. neoformans [2] = experiment: ergosterol quantitation; type: cell-based, Cryptococcus neoformans; conditions: 1× MIC vs no-drug control
Description: as §2

A. fumigatus [3] = experiment: ergosterol quantitation; type: cell-based, Aspergillus fumigatus; conditions: 1× MIC vs no-drug control
Description: as §2

Candida albicans = experiment: time-kill assay; type: cell-based; conditions: 2× MIC, C. albicans
Description: (§3) Cultures were incubated at 37°C with shaking at 200 rpm. Aliquots were withdrawn at 12, 24, 36, and 48 h post-treatment for both species, and additionally at 60 and 72 h for C. neoformans, then back-plated onto SDA. Viable cell counts were obtained after 48 h.

Cryptococcus neoformans = experiment: time-kill assay; type: cell-based; conditions: 1× MIC, C. neoformans
Description: as §3

C. neoformans [4] = experiment: membrane fluidity, TMA-DPH anisotropy; type: cell-based, Cryptococcus neoformans
Description: (§4) Candida albicans cells were incubated for 6 h, and C. neoformans cells were incubated for 9 h at 30°C, washed, then labeled with 2 µM TMA-DPH in PBS for 10 min. […] Mycelia were fixed, and protoplasts were prepared as described previously ([50]). Protoplasts were washed twice and labeled with 2 µM TMA-DPH in PBS for 30 min. For all labeled cultures, parallel and perpendicular fluorescence intensities were measured at 440 nm in a CLARIOstar plate reader (BMG Labtech), and anisotropy was calculated.

A. fumigatus [5] = experiment: membrane fluidity, TMA-DPH anisotropy; type: cell-based, Aspergillus fumigatus
Description: as §4

C. albicans [6] = experiment: membrane depolarization, diS-C3(3); type: cell-based, Candida albicans; conditions: diS-C3(3) emission maximum
Description: (§5) Membrane depolarization was determined using potential-sensitive fluorophore diS-C3(3) (Sigma), as described previously ([51]). Yeast cells and A. fumigatus conidia were treated as described above, then washed with citrate phosphate buffer and labeled with 20 nM diS-C3(3) at a final concentration of 10^6 cells/mL for yeasts and 10^4 conidia/mL for Aspergillus. Cells were transferred to a microplate (Invitrogen), then emission spectra between 560 and 585 nm (λexcitation = 531 nm) were obtained every 12 min for 1 h using a CLARIOstar plate reader (BMG Labtech). The emission λmax was determined at each timepoint.

A. fumigatus [7] = experiment: membrane depolarization, diS-C3(3); type: cell-based, Aspergillus fumigatus; conditions: diS-C3(3) emission maximum
Description: as §5

C. albicans [8] = experiment: membrane permeabilization, nucleic acid leakage; type: cell-based, Candida albicans
Description: (§6) Membrane permeabilization was determined by measuring the leakage of nucleic acid into the supernatant ([19]). […] Suspensions were incubated at 30°C with shaking at 200 rpm for 6 h, then passed through a 0.45 µm syringe filter. The A260 of each filtrate was measured with a DS-11 FX +benchtop spectrophotometer (DeNovix).

C. neoformans [9] = experiment: membrane permeabilization, nucleic acid leakage; type: cell-based, Cryptococcus neoformans
Description: as §6

A. fumigatus [10] = experiment: membrane permeabilization, nucleic acid leakage; type: cell-based, Aspergillus fumigatus
Description: as §6

C. albicans [11] = experiment: ROS accumulation, DCFDA; type: cell-based, Candida albicans
Description: (§7) All cultures were incubated for 6 h and then labeled with 20 µM DCFDA in PBS for 30 min. Labeled cultures were transferred into a microplate, and fluorescence intensity was measured using a CLARIOstar plate reader (BMG Labtech).

C. neoformans [12] = experiment: ROS accumulation, DCFDA; type: cell-based, Cryptococcus neoformans
Description: as §7

A. fumigatus [13] = experiment: ROS accumulation, DCFDA; type: cell-based, Aspergillus fumigatus
Description: as §7

C. albicans [14] = experiment: lipid peroxidation, TBARS assay (MDA); type: cell-based, Candida albicans
Description: (§8) Cultures were incubated overnight, pelleted, and resuspended in 1 mL ice-cold PBS. Malondialdehyde (MDA) was extracted and quantified using a TBARS assay kit (Cayman Chemical #700870) according to the manufacturer’s instructions. MDA was normalized to total protein content in cell lysates.

A. fumigatus [15] = experiment: lipid peroxidation, TBARS assay (MDA); type: cell-based, Aspergillus fumigatus
Description: as §8

A. fumigatus infection = experiment: Galleria mellonella survival assay; type: in vivo
Description: (§9) Galleria mellonella larvae were reared and prepared as described previously ([53]). Larvae (n = 12 per treatment) were each inoculated with 10^5 spores or cells of A. fumigatus, C. albicans, or C. neoformans in 10 µL of PBS. […] Treated larvae were incubated at 37°C, and mortality was evaluated every day for 10 days.

C. albicans infection = experiment: Galleria mellonella survival assay; type: in vivo
Description: as §9

C. neoformans infection = experiment: Galleria mellonella survival assay; type: in vivo
Description: as §9

[16] = tested on: 12 pathogenic bacterial species; experiment: antibacterial MIC, summary of 12 pathogenic bacterial species; type: cell-based
Text: as §1

fungal biofilms = experiment: biofilm XTT assay, summary across all biofilms tested; conditions: alone

## O=P(O)(O)C(O)(Cn1ccnc1)P(=O)(O)O [ZOL, zoledronate]
Acinetobacter baumanii
  MIC: > 256 µg/mL
Bacillus subtilis
  MIC: 256 µg/mL (≈ 941 µM)
Enterobacter aerogenes
  MIC: > 256 µg/mL
Enterococcus faecalis
  MIC: 256 µg/mL (≈ 941 µM)
Escherichia coli
  MIC: 256 µg/mL (≈ 941 µM)
Proteus vulgaris
  MIC: 128 µg/mL (≈ 470 µM)
Pseudomonas aeruginosa
  MIC: > 256 µg/mL
Salmonella Typhimurium
  MIC: 256 µg/mL (≈ 941 µM)
Staphylococcus aureus
  MIC: 256 µg/mL (≈ 941 µM)
Streptococcus pneumoniae
  MIC: > 256 µg/mL
Streptococcus pyogenes
  MIC: 256 µg/mL (≈ 941 µM)

## CCCCCCCCCCn1cc[n+](CC(O)(P(=O)(O)O)P(=O)(O)O)c1 [10-ZOL, Decyl-zoledronate]
Acinetobacter baumanii
  MIC: > 16 µg/mL
Bacillus subtilis
  MIC: > 16 µg/mL
Enterobacter aerogenes
  MIC: 16 µg/mL
Enterococcus faecalis
  MIC: 16 µg/mL
Escherichia coli
  MIC: 16 µg/mL
Proteus vulgaris
  MIC: > 16 µg/mL
Pseudomonas aeruginosa
  MIC: > 16 µg/mL
Salmonella Typhimurium
  MIC: > 16 µg/mL
Staphylococcus aureus
  MIC: 16 µg/mL
Streptococcus pneumoniae
  MIC: 16 µg/mL
Streptococcus pyogenes
  MIC: 16 µg/mL
C. albicans [1]
  membrane ergosterol content: significant depletion of membrane ergosterol
C. neoformans [2]
  membrane ergosterol content: significant depletion of membrane ergosterol
A. fumigatus [3]
  membrane ergosterol content: significant depletion of membrane ergosterol
Candida albicans
  time at which viable cell count is significantly decreased from starting inoculum: 12 h
Cryptococcus neoformans
  time at which viable cell count is significantly decreased from starting inoculum: 24 h
C. neoformans [4]
  concentration from which anisotropy differs significantly from no-drug control: 1 × MIC
A. fumigatus [5]
  concentration from which anisotropy differs significantly from no-drug control: 2 × MIC
C. albicans [6]
  membrane depolarization: dose-dependent depolarization effect
A. fumigatus [7]
  membrane depolarization: dose-dependent depolarization effect
C. albicans [8]
  concentration giving significant increase in leaked nucleic acid: ≥ 1 × MIC
C. neoformans [9]
  concentration giving significant increase in leaked nucleic acid: ≥ 1 × MIC
A. fumigatus [10]
  concentration giving significant increase in leaked nucleic acid: ≥ 1 × MIC
C. albicans [11]
  concentration at which ROS (DCFDA fluorescence) increase became significant: 2 × MIC
C. neoformans [12]
  concentration at which ROS (DCFDA fluorescence) increase became significant: 2 × MIC
A. fumigatus [13]
  concentration at which ROS (DCFDA fluorescence) increase became significant: 2 × MIC
C. albicans [14]
  concentration at which lipid peroxidation increase became significant: 1 × MIC
A. fumigatus [15]
  concentration at which lipid peroxidation increase became significant: 2 × MIC
A. fumigatus infection; 64 µg/mL
  survival compared with […] AMB: no significant difference in survival
A. fumigatus infection; single infusion of 64 µg/mL
  larval mortality vs no-drug control: significantly reduced mortality
C. albicans infection; 64 µg/mL
  survival compared with […] AMB: outperformed AMB
C. albicans infection; single infusion of 64 µg/mL
  larval mortality vs no-drug control: significantly reduced mortality
C. neoformans infection; 64 µg/mL
  survival compared with […] AMB: outperformed AMB
C. neoformans infection; single infusion of 64 µg/mL
  larval mortality vs no-drug control: significantly reduced mortality
[16]
  antibacterial activity: limited or no antibacterial activity
Fungal biofilms
  SIC80 range: 8 to 128 µg/mL
